# Measurements as given in patent US20080206181A1, “Hair treatment compositions containing sophora alkaloids” (Conopco Inc, d/b/a UNILEVER, priority 2007, published 2008).
# Marks after values point to notes of the source that are not given here.
# Key:
# [1] = Protein leaching from hair fibres (BCA protein assay kit); settings: for Protein leaching from hair fibres, Average: 1% test material + 2% SDS, pH about 6.0, 10 mg hair fibres, 37° C., 24 h; for Effect on protein leaching induced by SDS (in words): summary of Table 1
# Experimental: Protein leaching assays were conducted in order to find out the protective effect of test materials on protein leaching from hair.
# Chinese hair fibres from the same head were washed with shampoo and air dried. Then they were immersed in ether for 2 min to remove lipid components and rinsed with running water and air. The hair fibres were cut into ˜2 mm length with scissors.
# A 200 μL solution consisting of 1% test material (matrine or oxymatrine respectively) and 2% sodium dodecyl sulphate (SDS), where pH was adjusted to about 6.0 with citric acid, was incubated with 10 mg hair fibres at 37° C. for 24 h.
# Protein leaching from the treated hair fibres was determined with a BCA protein assay kit.
# The data were collected and analysed with One-Way ANOVA by using SPSS software. LSD was used when variances were equal, and Tamhane's T2 was used when variances were not equal.
# [2] = Differential scanning calorimetry (DSC) of bleach-damaged hair fibres; settings: for Average Denaturation Temperature Td / Sub From damaged (Td increase over damaged hair): bleached hair immersed in 1% aqueous solution at pH 5.5 for 1 hour; for Repair of damage caused by bleaching hair fibre (in words): summary of Table 2
# Experimental: To prepare damaged hair fibre, European hair fibres were bleached with L' Oreal Platifiz precision powder and Oxydant crème (1:1.5) for 30 min, rinsed completely with running tap water and naturally dried overnight before the next application. These hair fibres were immersed in a 1% aqueous solution of test material (matrine or oxymatrine respectively) and water (as a control) at pH 5.5 (adjusted with HCl and NaOH) for 1 hour respectively, rinsed with distilled water for 30 sec and naturally dried overnight and then they were cut into ˜2 mm lengths with scissors.
# For the DSC investigation a Mettler Toledo DSC823e analyser was used. About 6 mg of sample was weighed into a pressure resistant (20 bar), stainless steel, large volume pan (120 μl capacity). 50 μl of water was added and the pan was sealed. Samples were then mixed using a rotary mixer and left overnight to allow the water to equilibrate throughout the sample. Samples were run through a temperature programme of […] at a rate of 10° C./min in 30 ml/min nitrogen atmosphere. The helix transition temperature was collected and analyzed with one-way ANOVA. Each sample was carried out three times.
Structure (SMILES),"Protein leaching from hair fibres, Average ([1]; 1st Run)","Protein leaching from hair fibres, Average ([1]; 2nd Run)",Effect on protein leaching induced by SDS (in words) [1],Average Denaturation Temperature Td ([2]; 1st run),Sub From damaged (Td increase over damaged hair) ([2]; 1st run) [°C],"Average Denaturation Temperature Td ([2]; 1st run, listed as oxymatrine) [°C]",Average Denaturation Temperature Td ([2]; 2nd run),Sub From damaged (Td increase over damaged hair) ([2]; 2nd run),Repair of damage caused by bleaching hair fibre (in words) [2],"Average Denaturation Temperature Td ([2]; 1st run, listed as matrine) [°C]"
"O=C1CCC[C@@H]2[C@H]3CCC[N+]4([O-])CCC[C@@H](CN12)[C@@H]34 (single isomer, unassigned; (+)) [Oxymatrine, (+)-oxymatrine]",0.854** μg/mg,1.035** μg/mg,reduce protein leaching,152.24** ° C.,9.68,152.24,150.67** ° C.,7.49,fully repair the damage,–
O=C(O)CC(O)(CC(=O)O)C(=O)O [Citric acid],–,1.121 µg/mg,–,–,–,–,–,–,–,–
"O=C1CCC[C@@H]2[C@H]3CCCN4CCC[C@@H](CN12)[C@@H]34 [Matrine, (+)-matrine]",0.792** μg/mg,1.105* μg/mg,reduce protein leaching,148.00** ° C.,5.43,–,148.07** ° C.,4.89,fully repair the damage,148
